Experiments:
Male Wistar rats = test: Chronic Mild Stress Model of Depression (CMS), sucrose intake; assay type: in vivo, rat; details: for Sucrose intake in control animals / Sucrose intake in stressed animals: five weeks; for Sucrose intake in stressed animals: treatment effect
From the text: CMS uses mild stressors, such as food and water deprivation, cage tilts, changes of cage mates, etc. Over a period of weeks of exposure to the mild stressors, the animals gradually reduce their consumption of a highly preferred sucrose solution which persists (in untreated animals) for several weeks following the cessation of stress. This decreased sensitivity to reward (the sucrose solution) reflects anhedonia, a symptom of a Major Depressive Episode (see for example, Behavioral Pharmacol. 5: Suppl.1, p. 86 (1994) where lithium, carbamazepine and ketoconazole were evaluated in CMS; Psychopharmacology 93:358-364 (1987) where a tricyclic antidepressant was evaluated in CMS; Behavioral Pharmacology: 5:344-350 (1994) where a catechol-O-methyl transferase inhibitor was evaluated in CMS).
Male Wistar rats were brought into the laboratory two months before the start of the experiment at which time they weighed approximately 300 grams. Except as described below, the animals were singly housed, with food and water freely available, and maintained on a 12 hour light/dark cycle (lights on at 8AM) at a temperature of about 22° C.
The animals were first trained to consume a 1% sucrose solution; training consisted of eight 1 hour baseline tests in which sucrose was presented, in the home cage, following 14 hours food and water deprivation; intake was measured by weighing pre-weighed bottles containing the sucrose solution at the end of the test. Subsequently, sucrose consumption was monitored, under similar conditions, at weekly intervals throughout the whole experiment.
On the basis of their sucrose intakes in the final baseline test, the animals were divided into two matched groups. One group of animals was subjected to a chronic mild stress procedure for a period of 9 consecutive weeks. Each week of stress regime consisted of: two periods of food or water deprivation (12 and 14 hour), two periods of 45 degree cage tilt (12 and 14 hour+), two periods of intermittent overnight illumination (lights on and off every 2 hours), two 14 hour periods of soiled cage (200 ml water in sawdust bedding), two 14 hour periods of paired housing, two 14 hour periods of low intensity stroboscopic illumination (150 flashes/min). Stressors were applied continuously throughout the day and night, and scheduled randomly. Control animals were housed in a separate room and had no contract with the stressed animals. They were deprived of food and water for the 14 hours preceding each sucrose test, but otherwise food and water were freely available in the home cage. On the basis of their sucrose intake scores following 3 weeks of stress, both stressed and control animals were each divided further into matched subgroups (n=8), and for subsequent five weeks they received daily administrations of vehicle (1 ml/kg, intraperitoneally (ip)) imipramine (10 mg/kg, ip) or MDL 100,907 (0.002, 0.02 and 0.2 mg/kg orally). All drug injections were in a volume of 1 ml/kg body weight. Drugs were administered at 10AM and sucrose tests were carried out 24 hours following the last drug treatment. After five weeks, the treatments were terminated and after one week of withdrawal a final sucrose test was carried out. Stress was continued throughout the period of treatment and withdrawal.
Results were analyzed by multiple analysis of variance, followed by Fisher's LSD test for post hoc comparisons of means.

[1] = test system: A10 vs. A9 neuronal activity; details: after chronic administration; cited from earlier work
[2] = test system: amphetamine-stimulated locomotion; details: in vivo; cited from earlier work
prepulse inhibition = details: cited from earlier work
myocardial tissue = details: cited from earlier work
[3] = 0.002, 0.02 and 0.2 mg/kg orally daily

CN(C)CCCN1c2ccccc2CCc2ccccc21 [Imipramine, reference compound]
Sucrose intake in control animals (Male Wistar rats; 10 mg/kg, ip daily): no significant effect | Sucrose intake in stressed animals (Male Wistar rats; 10 mg/kg, ip daily): gradual increase of sucrose intake | Sucrose intake of drug-treated stressed animals vs drug- and saline-treated controls (Male Wistar rats; 10 mg/kg, ip, after five weeks of treatment): no significant differences | Sucrose intake in stressed animals vs Week 0 scores (Male Wistar rats; 10 mg/kg, ip, after four weeks of treatment): significantly increased | Increase of sucrose intake in stressed animals after withdrawal (Male Wistar rats; 10 mg/kg, ip, one week after withdrawal): maintained at similar level

COc1cccc(C(O)C2CCN(CCc3ccc(F)cc3)CC2)c1OC (stereo not drawn) [MDL 100,907, (+)-α-(2,3-dimethoxyphenyl)-1-[2-(4-fluorophenyl)ethyl]-4-piperidinemethanol]
Sucrose intake in stressed animals throughout the whole treatment period (Male Wistar rats; 0.002 mg/kg orally): no significant effect | Sucrose solution drunk by stressed animals at end of treatment (Week 5) (Male Wistar rats; 0.02 mg/kg orally): comparable to that of vehicle-treated controls | Sucrose intake in stressed animals vs initial scores (Week 0) (Male Wistar rats; 0.02 mg/kg orally, after two weeks of treatment): significantly increased | Sucrose solution drunk by stressed animals at end of treatment (Week 5) (Male Wistar rats; 0.2 mg/kg orally): comparable to that of vehicle-treated controls | Sucrose intake in stressed animals vs initial scores (Week 0) (Male Wistar rats; 0.2 mg/kg orally, after three weeks of treatment): significantly increased | Sucrose intake in control animals one week after withdrawal (Male Wistar rats; 0.002, 0.02, 0.2 mg/kg orally): not significantly changed | Sucrose intake in stressed animals one week after withdrawal (Male Wistar rats; 0.002, 0.02, 0.2 mg/kg orally): not significantly changed | Sucrose intake in control animals (Male Wistar rats; [3]): no significant effect | Sucrose intake in stressed animals (Male Wistar rats; [3]): gradually reversed the CMS-induced deficit in sucrose intake | Effects on A10 vs. A9 neuronal activity [1]: selective effects | Amphetamine-stimulated locomotion [2]: blockade | Disrupted PPI (prepulse inhibition) (prepulse inhibition; disruption produced by 5HT agonists in Wistar rats): restore disrupted PPI | 5-HT2 agonist-induced deficits in prepulse inhibition and latent inhibition (prepulse inhibition; rat, in vivo): reversal | Duration of the action potential of myocardial tissue (myocardial tissue): increases

From patent publication US6455526B1, “Biodegradable polymer encapsulated pharmaceutical compositions and method for preparing the same” (Aventis Pharmaceuticals, Inc., priority 1998, dated 2002)
